What was measured:
S. pneumoniae = assay: Murine thigh-infection model (time kill, dosing regimen, PK/PD, neutrophils; Tables 31-33); type: in vivo, mice; conditions: for 1 log kill mg/kg / 2 log kill mg/kg: total dose over 6 days
Method: Each point represents the mean of 4 thighs. Five dose levels, ranging 16-fold were used.
Five different doses (two-fold increases) were used. […] Each point represents the mean of 4 thighs.
Each point represents the mean of four thighs.
Each point represents the mean value from 4 thighs. The static dose, and the doses associated with a 1 and 2 log kill were calculated from the parameters estimated by non-linear regression using the Hill equation.

[1] = Pharmacokinetics and safety in subjects with hepatic impairment (VER001-12); conditions: human, in vivo, intravenous, 1000 mg Day 1 and 500 mg Day 8, Mean (±SD)
Source text: The study enrolled otherwise healthy subjects with mild, moderate, or severe hepatic impairment (Child-Pugh scores 5 to 6, 7 to 9, and 10 to 15, respectively) and matched control subjects with normal hepatic function.

## CN[C@H]1C(=O)N[C@@H]2Cc3ccc(cc3)Oc3cc4cc(c3O[C@@H]3O[C@H](C(=O)O)[C@@H](O)[C@H](O)[C@H]3NC(=O)CCCCCCCCC(C)C)Oc3ccc(cc3Cl)[C@@H](O)[C@@H]3NC(=O)[C@H](NC(=O)[C@@H]4NC(=O)[C@@H](NC2=O)c2cc(cc(O)c2Cl)Oc2cc1ccc2O)c1ccc(O)c(c1)-c1c(O[C@H]2O[C@H](CO)[C@@H](O)[C@H](O)[C@@H]2O)cc(O)cc1[C@@H](C(=O)NCCCN(C)C)NC3=O [Dalbavancin]
S. pneumoniae; SP1293, q 72 h regimen
  1 Log Kill mg/kg/24 h: 1.28 mg/kg/24 h
  2 Log Kill f24AUC/MIC: 23.8
  2 Log Kill mg/kg/24 h: 1.68 mg/kg/24 h
  Static Effect f24AUC/MIC: 14.1
  Static Effect mg/kg/72 h: 1.01 mg/kg/72 h
S. pneumoniae; SP1325, q 24 h regimen
  1 Log Kill f24AUC/MIC: 31.8
  1 Log Kill mg/kg/24 h: 1.6 mg/kg/24 h
  2 Log Kill f24AUC/MIC: 34.5
  2 Log Kill mg/kg/24 h: 1.73 mg/kg/24 h
  Static Effect f24AUC/MIC: 29.0
  Static Effect mg/kg/24 h: 1.46 mg/kg/24 h
S. pneumoniae; SP1325, q 72 h regimen
  1 Log Kill f24AUC/MIC: 8.8
  1 Log Kill mg/kg/24 h: 0.99 mg/kg/24 h
  2 Log Kill f24AUC/MIC: 17.6
  2 Log Kill mg/kg/24 h: 1.16 mg/kg/24 h
  Static Effect f24AUC/MIC: 6.0
  Static Effect mg/kg/72 h: 0.83 mg/kg/72 h
S. pneumoniae; SP1329, q 24 h regimen
  1 Log Kill f24AUC/MIC: 23.5
  1 Log Kill mg/kg/24 h: 1.18 mg/kg/24 h
  2 Log Kill f24AUC/MIC: 26.7
  2 Log Kill mg/kg/24 h: 1.45 mg/kg/24 h
  Static Effect f24AUC/MIC: 18.0
  Static Effect mg/kg/24 h: 0.90 mg/kg/24 h
S. pneumoniae; SP1396, q 72 h regimen
  1 Log Kill f24AUC/MIC: 4.3
  1 Log Kill mg/kg/24 h: 0.61 mg/kg/24 h
  2 Log Kill f24AUC/MIC: 4.8
  2 Log Kill mg/kg/24 h: 0.69 mg/kg/24 h
  Static Effect f24AUC/MIC: 4.0
  Static Effect mg/kg/72 h: 0.52 mg/kg/72 h
S. pneumoniae; SP10813, q 12 h
  1 log kill mg/kg: 2.8 mg/kg
  2 log kill mg/kg: 3.5 mg/kg
S. pneumoniae; SP10813, q 24 h
  1 log kill mg/kg: 1.54 mg/kg
  2 log kill mg/kg: 1.75 mg/kg
S. pneumoniae; SP10813, q 24 h regimen
  1 Log Kill f24AUC/MIC: 8.7
  1 Log Kill mg/kg/24 h: 1.54 mg/kg/24 h
  2 Log Kill f24AUC/MIC: 9.9
  2 Log Kill mg/kg/24 h: 1.75 mg/kg/24 h
  Static Effect f24AUC/MIC: 7.5
  Static Effect mg/kg/24 h: 1.34 mg/kg/24 h
S. pneumoniae; SP10813, q 36 h
  1 log kill mg/kg: 1.53 mg/kg
  2 log kill mg/kg: 1.81 mg/kg
S. pneumoniae; SP10813, q 72 h
  1 log kill mg/kg: 0.77 mg/kg
  2 log kill mg/kg: 0.82 mg/kg
S. pneumoniae; SP10813, q 72 h regimen
  1 Log Kill f24AUC/MIC: 1.6
  1 Log Kill mg/kg/24 h: 0.77 mg/kg/24 h
  2 Log Kill f24AUC/MIC: 1.6
  2 Log Kill mg/kg/24 h: 0.82 mg/kg/24 h
  Static Effect f24AUC/MIC: 1.4
  Static Effect mg/kg/72 h: 0.71 mg/kg/72 h
S. pneumoniae; all strains, 6 day study
  drop in cfu: > 4 log10
S. pneumoniae; every 24 h dosing
  free drug 24 h AUC/MIC associated with a static effect: 17.6±6.9
S. pneumoniae; over the 6 days of therapy, net static effect, 1 or 2 log kill
  free drug AUC/MIC required for efficacy: ~100
S. pneumoniae; single doses, highest doses studied
  extent of killing: > 2 log
[1]; t1/2, Mild Hepatic Impairment (N = 6)
  half-life: 13.5 days
[1]; t1/2, Moderate Hepatic Impairment (N = 6)
  half-life: 13.3 days
[1]; t1/2, Normal Hepatic Function (N = 9)
  half-life: 13.4 days
[1]; t1/2, Severe Hepatic Impairment (N = 5)
  half-life: 13.4 days

— patent US8143212B2 (Vicuron Pharmaceuticals Inc., priority 2002, dated 2012)
